Source: PubChem BioAssay (NCI)
“And” between values parts separate entries of the source, which are not always exact repeats. Identical values can stand only once.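 96-well plates; 48 h exposure; 5 concentrations. Endpoints by linear interpolation between flanking doses. Not reached: highest tested concentration assigned. GI50 marks 50% less growth. TGI: total growth inhibition.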

Legend:
Test in all cases: growth of human tumour cells (NCI), 48 h
[1] = system: COLO 205 colon
[2] = system: HCT-116 colon
[3] = system: HCT-15 colon
[4] = system: HOP-92 NSCLC
[5] = system: M14 melanoma
[6] = system: MDA-MB-435
[7] = system: NCI-H23 lung
[8] = system: PC-3 prostate
[9] = system: SNB-75 CNS
[10] = system: UACC-257 melanoma

Structure (SMILES) | TGI [1] | TGI [2] | TGI [3] | TGI [4] | TGI [5] | TGI [6] | TGI [7] | TGI [8] | TGI [9] | TGI [10] | GI50 [5] | GI50 [6]
COc1ccc(N2CC(=O)N(C(=O)COc3ccc(OCC(=O)N4C(=O)CN(c5ccc(OC)cc5)C4=S)cc3)C2=S)cc1 | > 100 µM | 63.3 µM | > 100 µM | > 100 µM | > 100 µM | > 100 µM | > 100 µM | > 100 µM | > 100 µM | > 100 µM |  | 
C[C@@]1(O)C2CC3CC1(c1ccccc1)CC(/C3=N/O)/C2=N\O (some centres not stated) | > 100 µM | > 100 µM | > 100 µM | > 100 µM | > 100 µM | > 100 µM | > 100 µM | > 100 µM | > 100 µM | > 100 µM |  | 
CC(C)(C)c1ccc(OCCOc2ccc(C(C)(C)C)cc2N)c(N)c1 | > 100 µM | > 100 µM | > 100 µM | > 100 µM | > 100 µM | > 100 µM | > 100 µM | > 100 µM | > 100 µM | > 100 µM |  | 
CC(=O)O[C@H]1CC(C)(C)C(=C=C/C(C)=C/C=C/C=C/C=C(C)/C=C2C=C(/C=C/[C@@]34O[C@]3(C)C[C@@H](O)CC4(C)C)C(=O)O/2)[C@](C)(O)C1 | > 100 µM | 50.5 µM | 35 µM | > 100 µM | 25.6 µM | > 100 µM | 18.1 µM | 15.9 µM | 28 µM | 51.5 µM |  | 
COc1ccc(N2C(=O)C3c4[nH]c5ccc(OCc6ccccc6)cc5c4C4CCC(c5ccccc5)CC4C3C2=O)cc1 (configuration not stated) | > 100 µM | > 100 µM | > 84 µM | 10.3 µM | > 100 µM | 12.1 µM | 32.4 µM | 96.5 µM | 27.2 µM | > 100 µM |  | 
Oc1cc(Cc2ccccc2)c(Cc2ccccc2)cc1O | > 10 µM | > 10 µM | > 10 µM | > 10 µM | > 10 µM | > 10 µM | > 10 µM | > 10 µM | > 10 µM | > 10 µM |  | 
N#CN1C2CCC1CC(=O)C2 | > 100 µM | > 100 µM | > 100 µM | > 100 µM | > 100 µM | > 100 µM | > 100 µM | > 100 µM | > 100 µM | > 100 µM |  | 
CC(=O)c1c(-c2cccc3ccccc23)c(C#N)c(=S)n(C2OC(CO)C(O)C(O)C2O)c1C (configuration not stated) | > 100 µM | > 100 µM | > 100 µM | > 100 µM | > 100 µM | > 100 µM | > 100 µM | > 100 µM | > 100 µM | > 100 µM | > 100 µM and 42.6 µM | > 100 µM and 46.9 µM
CC(=O)Nc1ccc2c(C)c3c(nc2n1)[nH]c1ccccc13 | 32 µM | 58.4 µM | 64.5 µM | 79 µM | 82.2 µM | 87.3 µM | 91.1 µM | > 100 µM | 69.2 µM | > 100 µM |  | 
O=C(O)CN(CC(=O)O)C1CCCCC1N1CC(=O)OC(=O)C1 (configuration not stated) | > 100 µM | > 100 µM | > 100 µM | > 100 µM | > 100 µM | > 100 µM | > 100 µM | > 100 µM | 95.5 µM | > 100 µM |  | 
Cc1cc(C)nc(NS(=O)(=O)c2ccc(NC(=O)c3c4ccccc4nc4ccccc34)cc2)n1 | > 100 µM | > 100 µM | > 100 µM | > 100 µM | > 100 µM | > 100 µM | > 100 µM | > 100 µM | > 100 µM | > 100 µM |  | 
COc1ccc([C@H]2[C@H]3COC(=O)[C@H]3C(C#N)=C3Sc4ccccc4N32)cc1 | 34.5 µM | > 100 µM | > 87.4 µM | > 100 µM | > 100 µM | > 100 µM | 78.8 µM | > 100 µM | > 26.7 µM | > 100 µM |  | 
CCOC(=O)c1c(C)n(Cc2ccc(Cl)cc2Cl)c2c1cc(O)c1[nH]c3c(c12)CCCC3 | > 100 µM | > 100 µM | > 100 µM | 43 µM | 86.3 µM | 55.5 µM | 77.6 µM | 40.9 µM | 48.6 µM | 43.2 µM |  | 
OC1[C@@H]2[C@@H](O)CCCN2C[C@@H](O)[C@H]1O (some centres not stated) | > 100 µM | > 100 µM | > 100 µM | > 100 µM | > 100 µM | > 100 µM | > 100 µM | > 100 µM | > 100 µM | > 100 µM |  | 
C=CCOC(=O)N1c2ccc(O[Si](C)(C)C(C)(C)C)cc2[C@@]23O[C@@]24[C@@H]1C#C/C=C\C#C[C@]3(O)C(OC)(OC)C[C@@H]4C | > 100 µM | > 100 µM | > 100 µM | > 100 µM | > 100 µM | > 100 µM | > 100 µM | > 100 µM | > 75.9 µM | > 100 µM |  | 
COc1cc2c(c(O)c1O)C(=O)C1CCC(=O)N1C2c1cccc2ccccc12 (configuration not stated) | > 50 µM | > 50 µM | > 50 µM | > 50 µM | > 50 µM | > 50 µM | > 50 µM | > 50 µM | > 50 µM | > 50 µM |  | 
O=c1[nH]cc(NCCCl)c(=O)[nH]1 | > 100 µM | > 100 µM | > 100 µM | > 100 µM | > 100 µM | > 100 µM | > 100 µM | > 100 µM | > 100 µM | > 100 µM |  | 
O=C(O)CCc1nc2c(n1-c1ccccc1)C(=O)c1ccccc1C2=O | > 100 µM | > 100 µM | > 100 µM | 61.3 µM | > 100 µM | > 100 µM | > 100 µM | > 100 µM | > 100 µM | > 100 µM |  | 
CCC/C(Cl)=N\OC(=O)Nc1ccc(F)cc1 | 8.97 µM | 31.1 µM | 19.3 µM | 16.5 µM | 29.6 µM | 31.9 µM | 41.2 µM | 31.2 µM | > 58 µM | 30.5 µM |  | 
Cc1ccc(Nc2nc3[nH]ccc3c(=O)[nH]2)cc1 | > 100 µM | > 100 µM | > 100 µM | > 100 µM | > 100 µM | > 100 µM | > 100 µM | > 100 µM | 49.9 µM | > 100 µM |  | 
